1 compound from US20240366577A1, “CONTROLLED LONG-TERM DRUG DELIVERY AND METHODS THEREOF” (THE JOHNS HOPKINS UNIVERSITY, priority 2021, published 2024) can be followed below.

For data set [1], the system named is macrophage Cd68 and myeloid Cd11b. The data set is described as follows: qPCR of retrieved tumors: immune markers. Type of data set: in vivo, BALB/c mice. Particulars: crystal treatment groups.
Data set [2] can be described thus: in vitro release under accelerated release conditions. Type of data set: physicochemical. To be noted: 37° C., PBS+0.3% SDS, 2.9 mg drug, 12-day time course; amorphous vs 50 μm vs 150-200 μm crystals. The text has this:
After crystals visibly stopped precipitating or growing, the vessel was submerged in an ultrasonic water bath for 10-30 seconds to dislodge crystals from the vessel sidewall and break them into more a uniform size distributions, either smaller fines, for example 50 μm, or between 150-200 μm, as measured by brightfield and scanning electron microscopy, shown in FIGS. 2A-2B. Resultant product was then removed from the supernatant mother solution, dried, weighed, and stored for later use. On average, yielded crystal was approximately 40% of the starting powder. Furthermore, methods exist to quantify solubilized material, typically using optics to identify changes in light transmittance, and enabled testing of crystal stability in a range of aqueous solutions. […] To simulate cumulative drug release over time, all 3 mL supernatant volumes were removed and replaced with completely fresh release media at desired times of 1 hr, 4 hr, 6 hr, 8 hr, 10 hr, 1 day, 2 days, 5 days, 7 days, 10 days and 12 days, and 200 μL aliquots were measured in individual wells of a 96-well plate at 266 nm to determine solubilize sorafenib release, as shown in FIG. 2D.
Release studies were carried out under accelerated conditions in PBS with 0.3% w/v SDS in 1X PBS. […] Drug concentration in samples was measured using a UV-calibrated Tecan infinite M200 PRO. […]

Data set [3] can be described thus: crystals collected from vitreous fluid after intravitreal injection. The class given is in vivo, mouse. Particulars: collected 2 weeks after injection; compared to larger crystalline sorafenib.
The subject of another data set is VE-Cdh, aSMact, Cd34. The data set is described as follows: qPCR of retrieved tumors: VE-Cdh, aSMact, Cd34. Type of data set: in vivo, BALB/c mice. To be noted: crystals, compared to daily bolus; tumors at end of study. How it is done: To determine the anti-angiogenic efficacy of each sorafenib treatment group, qPCR gene expression analysis was performed on retrieved tumors at the conclusion of the study. In particular, analysis for levels of endothelial cell marker Cd31, vascular endothelial-cadherin (VE-Cdh), smooth muscle pericyte marker alpha Smooth Muscle actin (aSMact), and stem/progenitor cell marker Cd34 were conducted, as shown in FIG. 3F.
1 mL of TRIzol reagent (Cat#15596018, ThermoFisher) was added to 100 mg samples of tumor tissue and broken down with a power homogenizer (Polytron/VWR). Homogenized samples were incubated at room temperature for 5 min for complete nucleoprotein dissociation, then 0.2 ml of chloroform (Sigma) was added to each sample. Samples were shaken vigorously for 15 seconds and incubated at room temperature for 3 min before centrifuging at 12,000 g for 15 min at 4° C. The uppermost supernatant layer was pipetted into a 1.7 mL Eppendorf tube, with the remaining interphase and organic layer discarded. 0.5 mL of isopropanol (Sigma) was added to each sample, and then samples were incubated for 10 min. Samples were centrifuged at 12,000 g for 10 min at 4° C. […] Depending on size of resultant pellet, pellets were resuspended in 50-100 μL, and nucleic acid concentration was measured using a NanoDrop 2000 spectrophotometer (ThermoFisher). […]
On the technique in general: Real-time PCR tracks product formation cycle by cycle.

As to `CNC(=O)c1cc(Oc2ccc(NC(=O)Nc3ccc(Cl)c(C(F)(F)F)c3)cc2)ccn1` [crystalline sorafenib, sorafenib], the “Cd68 and Cd11b expression levels (qPCR)” value in data set [1] is “no significant changes”. For the same compound, the “release of solubilized sorafenib (cumulative)” value in data set [2] is “tuned by varying crystal”. For the same compound, the “polymorph and crystal form of crystals recovered from vitreous fluid” value in data set [3] was “identical in polymorph and crystal form”. Besides, the “knockdown of VE-Cdh, aSMact and Cd34 (qPCR)” value in the data set on VE-Cdh, aSMact, Cd34 is given as “not as significant”.
